# According to patent publication US12679837B2, “Aminopyrimidine compound as CDK2/4/6 triple inhibitor” (CISEN PHARMACEUTICAL CO., LTD, priority 2019, dated 2026):
# Legend:
# CDK2/CyclinA2 = biological target: T1, CDK2/CyclinA2 (Homo sapiens, UniProt P24941); assay: CDK2/CyclinA2 kinase activity test (ADP-Glo); format: biochemical; conditions: 50 μM ATP, 25° C., 60 minutes; read-out: Enzyme activity data (IC50) CDK2/cyclinA
# T1 construct: purchased Promega
# Procedure: Experimental materials: CDK2/CyclinA2 kinase detection kit was purchased from Promega. Nivo Multilabel Analyzer (PerkinElmer).
# Experimental method: Kinase buffer dilution enzyme in the kit, substrate, adenosine triphosphate and inhibitor were used. The compounds to be tested were diluted 5-fold to the 8th concentration with a row gun, that is, from 50 μM to 0.65 nM, the concentration of DMSO was 5%, and a double-replicate well experiment was set up. 1 μL of each concentration gradient of inhibitor, 2 μL of CDK2/CyclinA2 enzyme (1.6 ng), and 2 μL of a mixture of substrate and ATP (50 μM of adenosine triphosphate, 0.1 μg/μL of substrate) were added to the microplate, and at this time, the final concentration gradient of compound was diluted from 10 μM to 0.13 nM. The reaction system was placed at 25° C. and reacted for 60 minutes. After the reaction was complete, 5 μL of ADP-Glo reagent was added to each well, and the reaction was continued at 25° C. for 40 minutes. At the end of the reaction, 10 μL of kinase detection reagent was added to each well. After the reaction was continued at 25° C. for 30 minutes, the chemiluminescence was read by a multi-label analyzer with an integration time of 0.5 seconds.
# Using the equation (Sample−Min)/(Max−Min)×100% to convert the original data into inhibition rate, the IC50 value can be obtained by curve fitting with four parameters (obtained by the mode of log(inhibitor) vs. response—Variable slope in GraphPad Prism). Table 1 provides the enzymatic inhibitory activities of the compounds of the present invention on CDK2/CyclinA2, CDK2/CyclinE1, CDK4/CyclinD1, CDK6/CyclinD1, CDK9/CyclinT1.
# HCC1806 cells = assay: HCC1806 cell activity test (CyQUANT); format: cell-based; conditions: Homo sapiens, 168 h, 7 days, read-out: Antiproliferative activity (IC50) HCC1806
# Procedure: Experimental materials: RPMI-1640 medium, fetal bovine serum, penicillin/streptomycin antibiotics were purchased from Vicente. CyQUANT Cell Proliferation Assays (Cell proliferation assay kit) reagents were purchased from ThermoFisher. The HCC1806 cell line was purchased from Cobioer Biosciences Co., Ltd. Nivo Multilabel Analyzer (PerkinElmer).
# Experimental method: HCC1806 cells were seeded in a white 96-well plate, 80 μL of cell suspension per well, which contained 3000 HCC1806 cells. The cell plate was incubated overnight in a carbon dioxide incubator. The compounds to be tested were diluted 5-fold to the 9th concentration with a row gun, that is, from 10 mM to 25.6 nM, and a double-replicate well experiment was set up. 78 μL of medium was added to the middle plate, and then transferred 2 μL per well of the gradient diluted compound to the middle plate according to the corresponding position, mixed well and transferred 20 μL per well to the cell plate. […] After reaching the incubation time, the cell supernatant was removed, and the cell plate was placed in a −80° C. refrigerator for 1 hour, after which 100 μL of Cyquant reagent was added to each well, and a multi-label analyzer was used for reading. Another cell plate was prepared, and the signal value was read as the maximum value (Max value in the equation below) on the day of drug addition to participate in data analysis. […]
# CDK4/CyclinD1 = biological target: T2, CDK4/CyclinD1 (Homo sapiens, UniProt P11802); assay: CDK4/CyclinD1 kinase activity test (LANCE Ultra TR-FRET); format: biochemical; conditions: 350 μM ATP, 25° C., 120 minutes; read-out: Enzyme activity data (IC50) CDK4/cyclinD1
# T2 construct: purchased Invitrogen
# T2 sequence (P11802 whole entry): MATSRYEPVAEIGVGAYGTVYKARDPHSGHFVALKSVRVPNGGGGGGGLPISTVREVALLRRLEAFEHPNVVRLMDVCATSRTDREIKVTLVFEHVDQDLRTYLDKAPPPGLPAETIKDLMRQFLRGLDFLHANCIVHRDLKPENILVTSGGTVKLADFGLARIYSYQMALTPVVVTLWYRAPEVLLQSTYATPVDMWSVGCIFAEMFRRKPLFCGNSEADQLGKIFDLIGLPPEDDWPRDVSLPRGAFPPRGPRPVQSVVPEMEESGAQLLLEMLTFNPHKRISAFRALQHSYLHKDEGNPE
# T2 sequence (P24385 whole entry partner): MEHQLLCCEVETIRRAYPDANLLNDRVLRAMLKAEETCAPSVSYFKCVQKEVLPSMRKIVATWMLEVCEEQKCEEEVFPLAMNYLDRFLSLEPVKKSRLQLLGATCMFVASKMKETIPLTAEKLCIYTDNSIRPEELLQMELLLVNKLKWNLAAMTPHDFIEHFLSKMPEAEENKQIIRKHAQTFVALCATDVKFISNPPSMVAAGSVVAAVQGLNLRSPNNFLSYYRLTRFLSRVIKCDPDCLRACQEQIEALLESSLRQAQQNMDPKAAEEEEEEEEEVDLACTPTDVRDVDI
# Procedure: Experimental materials: CDK4/CyclinD1 kinase was purchased from Invitrogen, reaction substrate LANCE Ultra ULight™-4E-BP-1 (Thr37146) Peptide and EU-ANTI-P-4EBP1 (THR37/46) were purchased from PerkinElmer. Nivo Multilabel Analyzer (PerkinElmer).
# Experimental method: preparation of kinase buffer: The components of the buffer include: 50 mM of hydroxyethylpiperazine […] solution with pH 7.5, 1 mM of EDTA, 10 mM of magnesium chloride, 0.01% lauryl polyoxyethylene ether (Brij-35), 2 mM of enzyme dithiothreitol, kinase buffer dilution enzyme, substrate LANCE Ultra ULight™-4E-BP-1 (Thr37146) Peptide, adenosine triphosphate and inhibitor. […] The reaction system was continued at 25° C. for 120 minutes. After the reaction was complete, a mixture of 5 μL of EDTA and 2× LANCE™ Detection Buffer (1:1) was added to each well, and reacted at 25° C. for 5 minutes, after the reaction was complete, 5 μL of LANCE Ultra Eu-anti-P-4E-BP1(Thr37MS) (4 nM) was added to each well, and reacted at 25° C. for 60 minutes, the reaction signal was detected by Nivo instrument according to the principle of time-resolved fluorescence resonance energy transfer.
# Table 1 provides the enzymatic inhibitory activities of the compounds of the present invention on CDK2/CyclinA2, CDK2/CyclinE1, CDK4/CyclinD1, CDK6/CyclinD1, CDK9/CyclinT1.
# HCT116 cells = assay: HCT116 cell activity test (CellTiter-Glo); format: cell-based; conditions: Homo sapiens, HCT-116, 96 h, 4 days, read-out: Antiproliferative activity (IC50) HCT 116
# Procedure: Experimental materials: McCoy' 5a medium, fetal bovine serum, and penicillin/streptomycin antibiotics were purchased from Vicente. CellTiter-Glo (chemiluminescence detection reagent for cell viability) reagent was purchased from Promega. The HCT116 cell line was purchased from Cobioer Biosciences Co., Ltd. Nivo Multilabel Analyzer (PerkinElmer).
# Experimental method: HCT116 cells were seeded in a white 96-well plate, 80 μL of cell suspension per well, which contained 1000 HCT116 cells. The cell plate was incubated overnight in a carbon dioxide incubator. The compounds to be tested were diluted 5-fold to the 9th concentration with a row gun, that is, from 2 mM to 5.12 nM, and a double-replicate well experiment was set up. 78 μL of medium was added to the middle plate, and then transferred 2 μL per well of the gradient diluted compound to the middle plate according to the corresponding position, mixed well and transferred 20 μL per well to the cell plate. […] Another cell plate was prepared, and the signal value was read as the maximum value (Max value in the equation below) on the day of drug addition to participate in data analysis. 25 μL of chemiluminescence detection reagent for cell viability was added to each well of the cell plate, and incubated at room temperature for 10 minutes to stabilize the luminescence signal. A multi-label analyzer was used for reading. […]
smiles,measurement,setting,value
C[C@@]1(O)CCC[C@H]1N1C(=O)CCc2cnc(NC3CCN(S(C)(=O)=O)CC3)nc21 [Compound 1A],IC50,CDK2/CyclinA2,0.28 nM
same,IC50,HCC1806 cells,155 nM
same,IC50,CDK4/CyclinD1,5.9 nM
same,IC50,HCT116 cells,70 nM
